In patent EP0832891B1, “Dihydrobenzo (B) indeno (2,1-D) thiophene compounds, intermediates, processes, compositions, and methods” (ELI LILLY AND COMPANY, priority 1996, dated 1998):
Marks after values point to notes of the source that are not given here.

Key:
Eosinophil peroxidase = system: Eosinophil peroxidase; design: species or system Sprague Dawley rats; details: rat, in vivo
Source text: (§1) Seventy-five day old female Sprague Dawley rats (weight range of 200 to 225g) were obtained from Charles River Laboratories (Portage, MI). The animals were either bilaterally ovariectomized (OVX) or exposed to a Sham surgical procedure at Charles River Laboratories, and then shipped after one week. Upon arrival, they were housed in metal hanging cages in groups of 3 or 4 per cage and had ad libitum access to food (calcium content approximately 0.5%) and water for one week. Room temperature was maintained at 22.2° ± 1.7° C with a minimum relative humidity of 40%. The photoperiod in the room was 12 hours light and 12 hours dark.
(§2) Dosing Regimen Tissue Collection. After a one week acclimation period (therefore, two weeks post-OVX) daily dosing with test compound was initiated. […] The animals were then sacrificed by asphyxiation with CO2, the uterus was removed through a midline incision, and a wet uterine weight was determined.
Uterine Eosinophil Peroxidase (EPO) Assay. […] Upon addition of 0.01% hydrogen peroxide and 10 mM O-phenylenediamine (final concentrations) in Tris buffer, increase in absorbance was monitored for one minute at 450 nm. […] The maximal velocity of a 15 second interval was determined over the initial, linear portion of the reaction curve.

ovariectomized rats [1] = system: ovariectomized rats; design: species or system Sprague Dawley rats; details: rat, in vivo, po, 0.1 mg/kg/day
Protocol: (§3) In the examples illustrating the methods, a postmenopausal model was used in which effects of different treatments upon circulating lipids were determined.
as §1
as §2, with “initiated. 17α-ethynyl estradiol or the test compound were given orally, unless otherwise stated, as a suspension in 1% carboxymethylcellulose or dissolved in 20% cyclodextrin. Animals were dosed daily for 4 days.” for “initiated.”

ovariectomized rats [2] = experiment: Serum cholesterol analysis in ovariectomized rats; assay type: in vivo, Sprague Dawley rats; details: for Serum Cholest. % Decrease: daily for 4 days, versus ovariectomized controls
Protocol: as §3, §1
Dosing Regimen Tissue Collection. After a one week acclimation period (therefore, two weeks post-OVX) daily dosing with test compound was initiated. 17α-ethynyl estradiol or the test compound were given orally, unless otherwise stated, as a suspension in 1% carboxymethylcellulose or dissolved in 20% cyclodextrin. Animals were dosed daily for 4 days. Following the dosing regimen, animals were weighed and anesthetized with a ketamine: xylazine (2:1, V:V) mixture and a blood sample was collected by cardiac puncture. The animals were then sacrificed by asphyxiation with CO2, the uterus was removed through a midline incision, and a wet uterine weight was determined.
Cholesterol Analysis. Blood samples were allowed to clot at room temperature for 2 hours, and serum was obtained following centrifugation for 10 minutes at 3000 rpm. Serum cholesterol was determined using a Boehringer Mannheim Diagnostics high performance cholesterol assay. Briefly the cholesterol was oxidized to cholest-4-en-3-one and hydrogen peroxide. The hydrogen peroxide was then reacted with phenol and 4-aminophenazone in the presence of peroxidase to produce a p-quinone imine dye, which was read spectrophotemetrically at 500 nm. Cholesterol concentration was then calculated against a standard curve.

[3] = system: MCF-7 breast adenocarcinoma cells; experiment: MCF-7 Proliferation Assay (tritiated thymidine uptake); assay type: cell-based; details: Homo sapiens, MCF7; MCF-7 cells, 48 hours with drug, tritiated thymidine pulse 4 hours
Protocol: MCF-7 breast adenocarcinoma cells (ATCC HTB 22) were maintained in MEM (minimal essential medium, phenol red-free, Sigma, St. Louis, MO) supplimented with 10% fetal bovine serum (FBS) (V/V), L-glutamine (2 mM), sodium pyruvate (1 mM), HEPES {(N-[2-hydroxyethyl]piperazine-N'-[2-ethanesulfonic acid]10 mM}, non-essential amino acids and bovine insulin (1 µg/mL) (maintenance medium). Ten days prior to assay, MCF-7 cells were switched to maintenance medium supplemented with 10% dextran coated charcoal stripped fetal bovine serum (DCC-FBS) assay medium) in place of 10% FBS to deplete internal stores of steroids. MCF-7 cells were removed from maintenance flasks using cell dissociation medium (Ca++/Mg++ free HBSS (phenol red-free) supplemented with 10 mM HEPES and 2 mM EDTA). Cells were washed twice with assay medium and adjusted to 80,000 cells/mL. Approximately […] (8,000 cells) were added to flat-bottom microculture wells (Costar 3596) and incubated at 37° C in a 5% CO2 humidified incubator for 48 hours to allow for cell adherence and equilibration after transfer. Serial dilutions of drugs or DMSO as a diluent control were prepared in assay medium and […] to triplicate microcultures […]. […] Samples were counted by liquid scintillation using a Wallace BetaPlace β counter.

| Uterine Eosinophil (Vmax) (Eosinophil peroxidase) | EC50 [3] | SMILES | eosinophil infiltration into the uterus (result in words) (Eosinophil peroxidase) | uterine weight (result in words) (ovariectomized rats [1]) | Serum Cholest. % Decrease (ovariectomized rats [2]; 0.1 mg/kg PO) | serum cholesterol (result in words) (ovariectomized rats [2]; compared to ovariectomized control animals, EE2 orally at 0.1 mg/kg/day) | Serum Cholest. % Decrease (ovariectomized rats [2]; 1 mg/kg PO) | Serum Cholest. % Decrease (ovariectomized rats [2]; 10 mg/kg PO) |
| --- | --- | --- | --- | --- | --- | --- | --- | --- |
| 357.3* | – | C#C[C@]1(O)CC[C@H]2[C@@H]3CCc4cc(O)ccc4[C@H]3CC[C@@]21C [EE2, 17α-ethynyl estradiol, reference compound] | substantial, expected increase in eosinophil infiltration | substantially greater than the uterine weight of ovariectomized test animals | 95.2* % | caused a decrease in serum cholesterol | – | – |
| – | 100 nM | Oc1ccc2c(c1)S[C@H]1c3ccccc3[C@@H](c3ccc(OCCN4CCCCC4)cc3)[C@@H]21 [Example 3] | – | – | 12.0% | – | 35.7* % | 65.0* % |
